From article PMC3914206 come the findings set out here.

In test [1] the target is T1, panel of 442 kinases (Homo sapiens, UniProt O15197).
T1 construct: purchased KINOMEscan
T1 sequence (O15197 32-1021): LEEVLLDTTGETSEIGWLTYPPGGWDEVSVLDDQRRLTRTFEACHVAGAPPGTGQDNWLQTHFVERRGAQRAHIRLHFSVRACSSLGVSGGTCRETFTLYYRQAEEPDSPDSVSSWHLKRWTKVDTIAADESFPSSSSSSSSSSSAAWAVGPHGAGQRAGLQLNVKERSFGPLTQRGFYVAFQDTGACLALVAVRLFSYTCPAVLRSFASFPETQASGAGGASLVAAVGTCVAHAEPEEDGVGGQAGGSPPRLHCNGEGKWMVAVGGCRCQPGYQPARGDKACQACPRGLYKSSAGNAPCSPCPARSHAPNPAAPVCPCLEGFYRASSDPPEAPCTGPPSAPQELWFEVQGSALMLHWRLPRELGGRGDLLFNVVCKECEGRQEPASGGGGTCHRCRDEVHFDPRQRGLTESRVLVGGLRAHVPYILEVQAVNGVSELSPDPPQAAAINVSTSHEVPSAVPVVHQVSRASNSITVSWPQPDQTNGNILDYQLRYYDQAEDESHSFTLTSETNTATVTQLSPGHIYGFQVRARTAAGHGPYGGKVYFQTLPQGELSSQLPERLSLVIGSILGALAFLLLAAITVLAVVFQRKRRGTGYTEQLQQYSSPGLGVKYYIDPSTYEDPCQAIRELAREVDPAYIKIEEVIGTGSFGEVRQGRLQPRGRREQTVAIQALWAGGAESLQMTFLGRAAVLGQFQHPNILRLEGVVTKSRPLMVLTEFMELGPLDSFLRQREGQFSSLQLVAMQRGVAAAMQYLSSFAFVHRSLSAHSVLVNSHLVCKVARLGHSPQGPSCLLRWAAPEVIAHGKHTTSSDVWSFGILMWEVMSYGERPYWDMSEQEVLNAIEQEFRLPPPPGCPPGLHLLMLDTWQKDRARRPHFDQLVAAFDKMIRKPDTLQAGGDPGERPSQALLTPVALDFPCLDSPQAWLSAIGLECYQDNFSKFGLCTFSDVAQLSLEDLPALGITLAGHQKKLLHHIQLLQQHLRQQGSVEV
The class given is binding. Conditions: Compound Concentration 10 µM. The text has this:
(§1) We assessed the selectivity of members of this scaffold using the KINOMEscan methodology across a near comprehensive panel of 442 kinases [[18,27]].

In test [2] the target is T2, panel of 442 kinases (Homo sapiens, UniProt Q92918).
T2 construct: purchased KINOMEscan
T2 sequence (Q92918 whole entry): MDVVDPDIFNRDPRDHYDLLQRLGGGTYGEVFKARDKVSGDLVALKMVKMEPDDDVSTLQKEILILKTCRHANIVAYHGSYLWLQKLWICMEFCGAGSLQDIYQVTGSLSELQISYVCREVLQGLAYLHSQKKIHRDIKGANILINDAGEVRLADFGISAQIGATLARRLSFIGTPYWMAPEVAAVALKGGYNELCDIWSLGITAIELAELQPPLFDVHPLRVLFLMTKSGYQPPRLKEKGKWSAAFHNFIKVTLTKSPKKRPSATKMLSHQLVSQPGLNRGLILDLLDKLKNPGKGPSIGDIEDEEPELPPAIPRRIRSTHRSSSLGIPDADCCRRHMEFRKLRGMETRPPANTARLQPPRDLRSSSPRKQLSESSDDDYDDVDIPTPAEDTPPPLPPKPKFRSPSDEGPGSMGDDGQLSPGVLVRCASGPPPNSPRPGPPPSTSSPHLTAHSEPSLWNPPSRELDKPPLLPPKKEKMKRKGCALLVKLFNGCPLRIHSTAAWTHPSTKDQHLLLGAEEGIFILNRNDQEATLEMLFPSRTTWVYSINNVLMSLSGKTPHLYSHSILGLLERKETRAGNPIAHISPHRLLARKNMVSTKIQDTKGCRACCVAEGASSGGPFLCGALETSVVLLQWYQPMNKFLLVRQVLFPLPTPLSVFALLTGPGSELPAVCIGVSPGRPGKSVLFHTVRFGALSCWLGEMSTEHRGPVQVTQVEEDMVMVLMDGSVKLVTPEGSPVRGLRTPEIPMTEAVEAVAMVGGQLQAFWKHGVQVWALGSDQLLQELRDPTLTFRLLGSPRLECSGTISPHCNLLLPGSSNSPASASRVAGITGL
The class given is binding. The conditions noted are these: Compound Concentration 10 µM.
Excerpt: as §1

With `COc1cc(C(=O)N2CCC(N3CCN(C)CC3)CC2)ccc1Nc1ncc2c(n1)N(C)c1ccccc1C(=O)N2C` [15 (LRRK2-IN-1)], the “KINOMEscan: EPHB6” value at panel of 442 kinases [1] worked out at 31. For the same compound, the “KINOMEscan: HPK1” value on panel of 442 kinases [2] was 100. Consider `COc1cc(C(=O)N2CCC(N3CCN(C)CC3)CC2)ccc1Nc1ncc2c(n1)N1CCc3cccc(c31)C(=O)N2C` [Compound 24], for which the “KINOMEscan: EPHB6” value on panel of 442 kinases [1] is given as 68. Turning to `COc1cc(C(=O)N2CCC(N3CCN(C)CC3)CC2)ccc1Nc1ncc2c(n1)N(C1CCCC1)c1ccccc1C(=O)N2C` [Compound 25, 11-cyclopentyl-2-((2-methoxy-4-(4-(4-methylpiperazin-1-yl)piperidine-1-carbonyl)phenyl)amino)-5-methyl-5H-benzo[e]pyrimido[5,4-b][1,4]diazepin-6(11H)-one], the “KINOMEscan: EPHB6” value on panel of 442 kinases [1] was determined as 69. At panel of 442 kinases [2], the “KINOMEscan: HPK1” value is reported as 89. For the compound `CCOc1cc(C(=O)N2CCC(N3CCN(C)CC3)CC2)ccc1Nc1ncc2c(n1)N(C1CCCC1)c1ccccc1C(=O)N2C` [Compound 26], the “KINOMEscan: EPHB6” value at panel of 442 kinases [1] is given as 100. The “KINOMEscan: HPK1” value on panel of 442 kinases [2] amounted to 94.
